System: RBL-2H3-cells
Test: Antigen-induced (DNP-BSA) activation of sensitised RBL-2H3 cells, fluorometric calcium measurement
Assay type: cell-based
Conditions: Rattus norvegicus, read-out: inhibition of the antigen-induced cell activation
Procedure: Individual RBL-2H3-cells (a tumour cell line related to the mast cells) adhering to glass slides are used.
The cultivation and attachment of the RBL-2H3-cells are carried out by the method described by HIDE and BEAVEN (1991). In order to sensitise the adhesive RBL-2H3-cells the cells are incubated for 2 hours at ambient temperature with a 1:2000 diluted commercial gammaglobulin E-solution against a dinitrophenol-bovine serum albumin complex (DNP-BSA-antigen). The cells are then washed. By the addition of 0.1 ml of DNP-BSA-solution (10 μg/ml) there is a massive immunological cell activation which is mediated by a cytoplasmic Ca^2+ -overload. The fluorometric calcium measurement in the cytoplasm of individual adhering RBL-2H3-cells is carried out analogously to the method described by KUDO and OGURA (1986) for neuronal cells, which is also explained hereinbefore in this specification.
The comparison used in these investigations is (10 μM) chromoglycate which brings about an approximately 50% inhibition of the antigen-induced cell activation.

O=C(O)c1cc(=O)c2c(OCC(O)COc3cccc4oc(C(=O)O)cc(=O)c34)cccc2o1 [chromoglycate]
inhibition at 10 µM: ~50%

Source: patent US5968948A, “Annelated dihydropyridines and the use thereof for preparing pharmaceutical preparations” (Boerhinger Ingelheim GmbH, priority 1993, dated 1999)
